Measured values from patent US9938286B2, “Nalmefene salts as medicaments for reducing alcohol consumption or for preventing excessive alcohol consumption” (H. Lundbeck A/S, priority 2013, dated 2018).
Structures can show the parent of a compound that is named as a salt. Where two headings read alike, the source gives them in different places.

Legend:
[1] = Attempt to form hydrates: precipitation from pure water, XRPD of precipitate; format: physicochemical; details: precipitated from pure water at room temperature and atmospheric pressure
From the text: A “hydrate” indicates a crystalline material with water (H2O) molecules incorporated into the crystal lattice. More particularly, a “non-hydrate forming salt” of nalmefene indicates a salt of which any isolated crystal form contains less than 25 mol % water, such as less than 20 mol % water, such as less than 15 mol % water, such as less than 10 mol % water, such as less than 5 mol % water, such as less than 4, 3, 2 or 1 mol % water, such as substantially no water in the crystal lattice of said salt.

[2] = Dynamic vapour sorption (DVS), water absorption; format: physicochemical
Protocol: Dynamic vapour sorption experiments were performed using a SMS DVS advantage 01 changing the relative humidity from 30-40% RH up to 90-95% RH in steps of 10%RH.

[3] = Attempt to form solvates: precipitation from organic solvents, XRPD of precipitate; format: physicochemical; details: for solvate formation from the organic solvents assessed: EtOH, MeOH, IPA, EtOAc, acetone, ACN, THF, MIBK, toluene and 2.2.2-trifluoroethanol, room temperature, atmospheric pressure; for solvate formation from EtOH: precipitated from EtOH
From the text: A “solvate” indicates a crystalline material with solvent molecules incorporated into the crystal lattice. In the present context, when referring to “solvents” these are limited to non-aqueous solvents, preferably organic solvents. Solvents assessed for solvate formation according to the invention includes the following: ethanol (EtOH), methanol (MeOH), isopropanol (IPA), ethyl acetate (EtOAc), acetone, acetonitrile (ACN), tetrahydrofurane (THF), methyl isobutyl ketone (MIBK), toluene and 2,2,2-trifluoroethanol.
The clear supernatant was diluted and assayed by HPLC. All precipitates were analyzed by XRPD.

[4] = Thermodynamic aqueous solubility in pure water (shaking, HPLC); details: for pH: aqueous solubility sample in pure water; for pH / Solubility (mg base/mL), aqueous: 23° C. ± 2°; for Solubility (mg base/mL), aqueous: pure water, normalised to nalmefene free base
[5] = Solubility in organic solvents (HPLC); details: 23° C. ± 2°
Protocol: The suspensions were heated with the purpose of obtaining complete dissolution and then cooled to room temperature and left for equilibrium to be attained. The clear supernatant was diluted and assayed by HPLC. All precipitates were analyzed by XRPD.
For comparison, the solvate formation from nalmefene hydrochloride was also investigated.

[6] = precipitated/crystallized from ethanol, Brittain 1996, cited from earlier work
[7] = Brittain 1996, WO 2010/063292, cited from earlier work
κ receptor = κ receptor (Homo sapiens, UniProt P41145); details: in vitro studies; cited from earlier work
δ receptor = δ receptor (Homo sapiens, UniProt P41143); details: in vitro studies; cited from earlier work
μ receptor = μ receptor (Homo sapiens, UniProt P35372); details: in vitro studies; cited from earlier work
Chain of μ receptor (P35372 whole entry): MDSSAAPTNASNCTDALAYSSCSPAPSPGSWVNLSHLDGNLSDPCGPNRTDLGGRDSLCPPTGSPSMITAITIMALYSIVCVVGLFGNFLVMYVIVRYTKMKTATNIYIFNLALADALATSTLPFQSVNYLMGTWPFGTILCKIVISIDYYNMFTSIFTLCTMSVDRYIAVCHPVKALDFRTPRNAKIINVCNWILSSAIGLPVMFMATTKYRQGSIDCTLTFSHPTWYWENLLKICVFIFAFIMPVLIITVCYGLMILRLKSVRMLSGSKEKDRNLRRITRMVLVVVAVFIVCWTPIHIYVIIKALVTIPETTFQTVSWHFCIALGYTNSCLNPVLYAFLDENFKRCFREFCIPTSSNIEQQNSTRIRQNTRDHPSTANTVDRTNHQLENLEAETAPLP

Chain of κ receptor (P41145 whole entry): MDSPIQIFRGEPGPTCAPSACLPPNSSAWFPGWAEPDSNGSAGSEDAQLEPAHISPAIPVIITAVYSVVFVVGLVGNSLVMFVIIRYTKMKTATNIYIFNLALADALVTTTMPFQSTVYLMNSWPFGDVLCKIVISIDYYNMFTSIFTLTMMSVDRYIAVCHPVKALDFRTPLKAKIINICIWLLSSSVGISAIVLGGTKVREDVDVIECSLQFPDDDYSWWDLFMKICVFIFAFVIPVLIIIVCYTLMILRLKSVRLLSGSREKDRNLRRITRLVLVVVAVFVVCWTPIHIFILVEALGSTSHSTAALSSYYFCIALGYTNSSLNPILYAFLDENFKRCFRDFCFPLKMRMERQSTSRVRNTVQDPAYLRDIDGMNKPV
Chain of δ receptor (P41143 whole entry): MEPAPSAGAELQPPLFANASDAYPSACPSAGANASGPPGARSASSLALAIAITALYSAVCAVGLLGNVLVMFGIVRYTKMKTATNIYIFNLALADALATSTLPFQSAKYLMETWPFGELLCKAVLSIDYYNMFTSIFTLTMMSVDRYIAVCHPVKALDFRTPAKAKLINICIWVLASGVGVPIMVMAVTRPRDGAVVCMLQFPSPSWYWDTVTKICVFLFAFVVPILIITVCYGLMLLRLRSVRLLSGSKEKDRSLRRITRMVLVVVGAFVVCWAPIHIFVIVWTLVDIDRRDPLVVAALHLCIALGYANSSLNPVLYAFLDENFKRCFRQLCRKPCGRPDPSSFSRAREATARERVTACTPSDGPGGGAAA

## C=C1CC[C@@]2(O)[C@H]3Cc4ccc(O)c5c4[C@@]2(CCN3CC2CC2)[C@H]1O5.O=C(O)/C=C/C(=O)O
[1]
  hydrate formation: not to form hydrates
[2]
  % abs. at 90% RH (water absorption determined by DVS): 0.6%
[3]; precipitated from 2,2,2-trifluoroethanol
  solvate formation from 2,2,2-trifluoroethanol: formed solvate

## C=C1CC[C@@]2(O)[C@H]3Cc4ccc(O)c5c4[C@@]2(CCN3CC2CC2)[C@H]1O5.O=C(O)CCCCC(=O)O
[1]
  hydrate formation: not to form hydrates
[2]
  % abs. at 90% RH (water absorption determined by DVS): 0.35%
[3]
  solvate formation from the organic solvents assessed: No solvates were formed

## C=C1CC[C@@]2(O)[C@H]3Cc4ccc(O)c5c4[C@@]2(CCN3CC2CC2)[C@H]1O5.O=C(O)CC(=O)O
[1]
  hydrate formation: not to form hydrates
[2]
  % abs. at 90% RH (water absorption determined by DVS): 0.35%
[3]; precipitated from MeOH
  solvate formation from MeOH: formed solvate

## C1=Cc2cccc(OC[C@H]3CNCCO3)c2C1.O=S(=O)(O)c1ccccc1 [Benzene sulfonate]
[1]
  hydrate formation: not to form hydrates
[2]
  % abs. at 90% RH (water absorption determined by DVS): <0.2%
[3]
  solvate formation from EtOH: solvate
[3]; listed as benzene sulfonate salt
  solvate formation from EtOH: formed solvate
[3]; precipitated from THF
  solvate formation from THF: formed solvate
[4]
  pH: 3.12

## C=C1CC[C@@]2(O)[C@H]3Cc4ccc(O)c5c4[C@@]2(CCN3CC2CC2)[C@H]1O5.O=C(O)/C=C\C(=O)O [Hydrogen maleate]
[1]
  hydrate formation: not to form hydrates
[2]
  % abs. at 90% RH (water absorption determined by DVS): 0.2%
[3]
  solvate formation from the organic solvents assessed: No solvates were formed

## O=C(O)c1ccccc1O [Salicylate]
[1]
  hydrate formation: not to form hydrates
[2]
  % abs. at 90% RH (water absorption determined by DVS): 0.4%
[3]; precipitated from IPA
  solvate formation from IPA: formed solvate
[5]; 2,2,2-trifluoroethanol, * = precipitated as solvate
  Solubility in 2,2,2-trifluoro-EtOH: 120 mg base/mL
[5]; ACN
  Solubility in ACN: 8.2 mg base/mL
[5]; EtOAc
  Solubility in EtOAc: 2.0 mg base/mL
[5]; EtOH, * = precipitated as solvate
  Solubility in EtOH: 19 mg base/mL
[5]; IPA, * = precipitated as solvate
  Solubility in IPA: 0.5* mg base/mL
[5]; MIBK
  Solubility in MIBK: 2.9 mg base/mL
[5]; MeOH, * = precipitated as solvate
  Solubility in MeOH: 91 mg base/mL
[5]; THF
  Solubility in THF: 35 mg base/mL
[5]; acetone
  Solubility in acetone: 9.7 mg base/mL
[4]
  pH: 7.14
  Solubility (mg base/mL), aqueous: 3.0 mg base/mL
[4]; listed as salicylate salt
  Solubility (mg base/mL), aqueous: 3 mg base/mL

## C=C1CC[C@@]2(O)[C@H]3Cc4ccc(O)c5c4[C@@]2(CCN3CC2CC2)[C@H]1O5 [nalmefene hydrochloride]
[3]; listed as hydrochloride salt
  solvate formation from the organic solvents assessed: formed solvate from all the organic solvents
[6]
  solvate formation from ethanol (literature): form solvate
[6]; listed as Nalmefene hydrochloride
  solvate formation from ethanol (literature): ethanol solvate
[4]; unpublished data
  aqueous solubility of the known hydrochloride salt: 109 mg base/mL
[7]; listed as HCl salt of nalmefene
  hydrate formation / thermodynamically stable form (literature): only thermodynamically stable in hydrated or solvated form
[7]; listed as nalmefene hydrochloride salt
  hydrate formation / thermodynamically stable form (literature): hydrate-forming salt

## C=C1CC[C@@]2(O)[C@H]3Cc4ccc(O)c5c4[C@@]2(CCN3CC2CC2)[C@H]1O5 [nalmefene, 17-(cyclopropylmethyl)-4,5-alpha-epoxy-6-methylenemorphinan-3,14-diol]
κ receptor
  activity at the κ receptor: partial agonist activity
δ receptor
  activity at the δ receptor: antagonist activity
μ receptor
  activity at the μ receptor: antagonist activity

## L-lactate
[1]
  hydrate formation: corresponds to a monohydrate
[2]
  % abs. at 90% RH (water absorption determined by DVS): 1.2%
[3]
  solvate formation from the organic solvents assessed: No solvates were formed
